According to patent US8415469B2, “Compounds and methods for kinase modulation, and indications therefor” (Plexxikon Inc., priority 2005, dated 2013):

Experiments:
Format in all cases: biochemical
MAP4K4 = MAP4K4 (Homo sapiens, UniProt O95819); experiment: AlphaScreen kinase assay, MAP4K4; settings: read-out: IC50, activity toward kinase MAP4K4
Irak4 = molecular target: T1, Irak4 (Homo sapiens, UniProt Q9NWZ3); experiment: Z'-Lyte FRET kinase assay (Invitrogen), Irak4; settings: read-out: IC50, activity toward kinase Irak4
T1 construct: purchased Invitrogen (assay run by Invitrogen)
T1 sequence (Q9NWZ3 1-460): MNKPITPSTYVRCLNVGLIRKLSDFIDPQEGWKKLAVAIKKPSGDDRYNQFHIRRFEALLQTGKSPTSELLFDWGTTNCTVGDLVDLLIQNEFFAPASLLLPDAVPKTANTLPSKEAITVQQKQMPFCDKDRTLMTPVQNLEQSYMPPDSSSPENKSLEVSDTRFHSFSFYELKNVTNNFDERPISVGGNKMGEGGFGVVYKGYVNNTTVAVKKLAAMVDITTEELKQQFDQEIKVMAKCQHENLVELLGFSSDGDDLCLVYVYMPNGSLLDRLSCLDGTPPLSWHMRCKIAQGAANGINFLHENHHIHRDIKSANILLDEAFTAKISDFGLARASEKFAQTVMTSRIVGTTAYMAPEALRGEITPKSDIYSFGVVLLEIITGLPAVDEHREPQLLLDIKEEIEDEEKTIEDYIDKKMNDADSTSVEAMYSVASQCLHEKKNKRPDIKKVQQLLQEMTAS
From the text: The effect of potential modulators of kinase activity can be measured in a variety of different assays known in the art. For example, direct radiometric, indirect FRET or AlphaScreen assays may be used to assess the level of phosphorylation of a substrate in the presence of test compounds in order to determine the inhibitory affect of the compound on the kinase. Invitrogen (Carlsbad, Calif.) uses a FRET based assay for Btk, EGFR, EphB2, Flt3, lrak4, Kdr, MAP2K1, MAPKAPK2, PDGFRB, PKC theta, Stk6 and Yes. For these assays, compounds of the invention were screened by Invitrogen using Z′-Lyte™ kinase assay.
Briefly, the Invitrogen kinase assay involves use of a specific peptide substrate optimized for each kinase, containing a fluorophore at each end that make up the FRET pair. The peptide sensitivity to proteolytic cleavage depends on phosphorylation of the peptide. Non-phosphorylated peptide is cleaved by a protease while peptide phosphorylated by the kinase is not cleaved. Cleavage of the peptide disrupts the FRET between the donor (coumarin) and acceptor (fluorescein) fluorophores, resulting in an increase in the ratio of donor emission to acceptor emission. The emission ratio of coumarin to fluorescein is used to assess the reaction progress. The extent of phosphorylation is determined from the emission ratio, which is low when the kinase is active (phosphorylated peptide is not cleaved, FRET pair connected) or higher for inhibited kinase (non-phosphorylated peptide is cleaved, FRET pair separated). Thus, the assay involves a kinase reaction in the presence of varying concentrations of a given compound, a development reaction with site specific protease, and detection of the fluorescent emission ratio of coumarin and fluorscein. […] Reaction conditions for each kinase are determined to provide optimal reaction times, incubation temperature, kinase and ATP concentrations. Test samples are made up in 1× kinase buffer (50 mM HEPES pH 7.5, 50 mM MgCl2, 5 mM EGTA, 0.05% BRIJ-35) and compound at desired concentration prepared in DMSO such that the final DMSO is 1%. […] Typically, assay plates are prepared to 10 μl final volume per sample, adding 2.5 μl of compound at 4× the desired concentration in 4% DMSO (serial dilution of compound provides concentration curve), 5 μl of the desired kinase mixed with Z′-LYTE™ peptide substrate (2× in 2× kinase buffer, final peptide at 2 μM), and 2.5 μl of 4×ATP solution. All kinase except for MAP2K1 were at 10 μM ATP in the kinase reaction, while MAP2K1 was at 100 μM. Samples are mixed and the kinase reaction is incubated 1 hour at room temperature, after which 5 μl of development solution is added and mixed. After incubation for another 1 hour at room temperature, 5 μl of stop reagent is added to each sample and mixed. The fluorescence signals are measured to determine the emission ratio.

Kdr = molecular target: T2, Kdr (Homo sapiens, UniProt P35968); experiment: Z'-Lyte FRET kinase assay (Invitrogen), Kdr; settings: read-out: IC50, activity toward kinase Kdr
T2 construct: purchased Invitrogen (assay run by Invitrogen)

IKK beta = molecular target: T3, IKK beta (Homo sapiens, UniProt O14920); experiment: AlphaScreen kinase assay, IKK beta; settings: read-out: IC50, activity toward kinase IKK beta
T3 sequence (O14920 1-756): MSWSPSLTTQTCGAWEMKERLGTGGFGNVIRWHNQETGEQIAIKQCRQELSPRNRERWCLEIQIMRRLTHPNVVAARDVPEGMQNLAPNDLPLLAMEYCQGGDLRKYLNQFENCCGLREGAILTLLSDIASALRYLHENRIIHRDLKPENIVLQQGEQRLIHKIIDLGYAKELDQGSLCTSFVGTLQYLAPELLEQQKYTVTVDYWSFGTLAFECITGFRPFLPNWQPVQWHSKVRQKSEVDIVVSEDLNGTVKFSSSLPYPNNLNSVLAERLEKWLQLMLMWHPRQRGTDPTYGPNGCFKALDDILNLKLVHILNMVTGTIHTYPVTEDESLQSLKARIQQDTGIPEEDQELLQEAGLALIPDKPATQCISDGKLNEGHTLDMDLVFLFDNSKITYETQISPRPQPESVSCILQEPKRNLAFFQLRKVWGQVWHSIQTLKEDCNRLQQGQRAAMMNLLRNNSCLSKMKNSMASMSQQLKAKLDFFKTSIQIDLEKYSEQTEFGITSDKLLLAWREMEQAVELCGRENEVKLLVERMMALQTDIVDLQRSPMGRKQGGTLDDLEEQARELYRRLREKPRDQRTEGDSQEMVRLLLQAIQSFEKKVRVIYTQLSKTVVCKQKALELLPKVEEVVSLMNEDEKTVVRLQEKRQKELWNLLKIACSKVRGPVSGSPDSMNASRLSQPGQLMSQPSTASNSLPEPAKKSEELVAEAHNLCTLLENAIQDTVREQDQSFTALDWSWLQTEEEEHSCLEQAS

Stk6 = molecular target: T4, Stk6 (Homo sapiens, UniProt O14965); experiment: Z'-Lyte FRET kinase assay (Invitrogen), Stk6; settings: read-out: IC50, activity toward kinase Stk6
T4 construct: purchased Invitrogen (Carlsbad, Calif.), screening service
T4 sequence (O14965 1-403): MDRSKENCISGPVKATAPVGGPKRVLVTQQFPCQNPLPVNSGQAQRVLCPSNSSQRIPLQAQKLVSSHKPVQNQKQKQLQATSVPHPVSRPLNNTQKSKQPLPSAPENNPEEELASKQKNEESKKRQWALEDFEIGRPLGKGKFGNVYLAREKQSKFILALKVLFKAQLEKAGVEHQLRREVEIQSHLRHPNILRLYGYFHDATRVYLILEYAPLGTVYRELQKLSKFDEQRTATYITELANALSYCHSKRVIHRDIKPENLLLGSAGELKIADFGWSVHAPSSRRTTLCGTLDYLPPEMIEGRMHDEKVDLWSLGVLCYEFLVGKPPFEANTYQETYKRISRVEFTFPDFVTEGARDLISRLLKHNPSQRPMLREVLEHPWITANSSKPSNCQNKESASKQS

MAP2K1 = molecular target: T5, MAP2K1 (Homo sapiens, UniProt Q02750); experiment: Z'-Lyte FRET kinase assay (Invitrogen), MAP2K1; settings: read-out: IC50, activity toward kinase MAP2K1
T5 construct: purchased Invitrogen (assay run by Invitrogen)

Ret = molecular target: T6, Ret (Homo sapiens, UniProt P07949); experiment: AlphaScreen kinase assay, Ret; settings: read-out: IC50, activity toward kinase Ret
T6 construct: P1378.pET-SF BI-PTP RET H661-R1012 HIS; made in house
T6 sequence (P07949 with tags, fused parts or gaps): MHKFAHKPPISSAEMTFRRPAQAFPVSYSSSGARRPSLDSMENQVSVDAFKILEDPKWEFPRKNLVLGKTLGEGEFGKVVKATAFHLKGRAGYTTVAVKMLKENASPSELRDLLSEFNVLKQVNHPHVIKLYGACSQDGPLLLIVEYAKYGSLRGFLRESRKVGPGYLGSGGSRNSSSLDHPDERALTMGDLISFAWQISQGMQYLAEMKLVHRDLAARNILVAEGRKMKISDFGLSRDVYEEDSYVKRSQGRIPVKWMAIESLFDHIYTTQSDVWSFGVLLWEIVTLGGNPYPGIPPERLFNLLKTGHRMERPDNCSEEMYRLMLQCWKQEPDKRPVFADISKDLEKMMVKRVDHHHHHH

FGFR1 = molecular target: T7, FGFR1 (Homo sapiens, UniProt P11362, C488A/C584S); experiment: AlphaScreen kinase assay, FGFR1; settings: read-out: IC50, activity toward kinase FGFR
T7 construct: P1351.pET N6 BI-PTP FGFR A458-E765-X C488A, C584S; made in house; host or cells: E. coli (PTP1B co-expressed)

Kit = molecular target: T8, Kit (Homo sapiens, UniProt P10721); experiment: AlphaScreen kinase assay, Kit; settings: read-out: IC50, activity toward kinase Kit
T8 construct: P1332.N6 BI PTP KIT M552-K948-X COD; His6 (N); made in house; host or cells: E. coli (PTP1B co-expressed)

p38 = molecular target: T9, p38 (Homo sapiens, UniProt Q16539); experiment: AlphaScreen kinase assay, p38; settings: read-out: IC50, activity toward kinase p38
T9 construct: P4292.pET15S P38A M1-S360-X MKK6DD; His6 with thrombin site (N); made in house

Flt1 = molecular target: T10, Flt1 (Homo sapiens, UniProt P17948); experiment: AlphaScreen kinase assay, Flt1; settings: read-out: IC50, activity toward kinase Flt1
T10 construct: P1826.pETN6 BI-PTP FLT1 M799-D1165-X WT; His6 (N); made in house; host or cells: E. coli (PTP1B co-expressed)
T10 sequence (P17948 with tags, fused parts or gaps): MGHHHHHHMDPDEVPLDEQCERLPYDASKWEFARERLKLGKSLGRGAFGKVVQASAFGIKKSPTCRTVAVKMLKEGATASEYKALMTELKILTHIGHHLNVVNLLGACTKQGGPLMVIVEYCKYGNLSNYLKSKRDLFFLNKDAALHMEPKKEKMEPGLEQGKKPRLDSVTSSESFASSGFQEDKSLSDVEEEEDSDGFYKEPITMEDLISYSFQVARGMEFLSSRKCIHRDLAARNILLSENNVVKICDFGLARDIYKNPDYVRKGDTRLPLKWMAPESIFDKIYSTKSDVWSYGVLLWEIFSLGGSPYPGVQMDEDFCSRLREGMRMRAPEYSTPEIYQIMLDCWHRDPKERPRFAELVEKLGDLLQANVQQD

Abl = molecular target: T11, Abl (Homo sapiens, UniProt P00519); experiment: AlphaScreen kinase assay, Abl; settings: read-out: activity toward kinase Abl, IC50
T11 construct: P1121. pET-SPEC BI-PTP Abl G227-V515-X; His6 (N); made in house; host or cells: E. coli (PTP1B co-expressed)
T11 sequence (P00519 with tags, fused parts or gaps): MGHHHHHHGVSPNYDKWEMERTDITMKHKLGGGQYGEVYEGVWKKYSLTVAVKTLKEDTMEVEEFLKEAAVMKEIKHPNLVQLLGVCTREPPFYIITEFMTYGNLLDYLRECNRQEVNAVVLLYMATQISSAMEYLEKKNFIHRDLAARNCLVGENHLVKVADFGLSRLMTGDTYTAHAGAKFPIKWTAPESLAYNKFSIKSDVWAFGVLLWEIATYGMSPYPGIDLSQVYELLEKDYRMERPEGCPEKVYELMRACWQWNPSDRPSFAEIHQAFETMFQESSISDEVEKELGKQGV
Procedure, shortened: (§1)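 Inhibition reads as diminished acceptor emission, since unphosphorylated peptide fails to bridge antibody acceptor beads and streptavidin donor beads. Titration: eight points, 1:3 steps, stocks at 20 mM in DMSO.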

Flt4 = molecular target: T12, Flt4 (Homo sapiens, UniProt P35916); experiment: AlphaScreen kinase assay, Flt4; settings: read-out: IC50, activity toward kinase Flt4
T12 construct: purchased ProQinase GmbH (Freiburg, Germany)
Procedure, shortened: as §1

Met = molecular target: T13, Met (Homo sapiens, UniProt P08581); experiment: AlphaScreen kinase assay, Met; settings: read-out: IC50, activity toward kinase Met
T13 construct: P1818.pETN6 BI-PTP MET G1056-G1364-X WT; His6 (N); made in house; host or cells: E. coli (PTP1B co-expressed)
Procedure, shortened: as §1

T2 sequence (P35968 20-1356): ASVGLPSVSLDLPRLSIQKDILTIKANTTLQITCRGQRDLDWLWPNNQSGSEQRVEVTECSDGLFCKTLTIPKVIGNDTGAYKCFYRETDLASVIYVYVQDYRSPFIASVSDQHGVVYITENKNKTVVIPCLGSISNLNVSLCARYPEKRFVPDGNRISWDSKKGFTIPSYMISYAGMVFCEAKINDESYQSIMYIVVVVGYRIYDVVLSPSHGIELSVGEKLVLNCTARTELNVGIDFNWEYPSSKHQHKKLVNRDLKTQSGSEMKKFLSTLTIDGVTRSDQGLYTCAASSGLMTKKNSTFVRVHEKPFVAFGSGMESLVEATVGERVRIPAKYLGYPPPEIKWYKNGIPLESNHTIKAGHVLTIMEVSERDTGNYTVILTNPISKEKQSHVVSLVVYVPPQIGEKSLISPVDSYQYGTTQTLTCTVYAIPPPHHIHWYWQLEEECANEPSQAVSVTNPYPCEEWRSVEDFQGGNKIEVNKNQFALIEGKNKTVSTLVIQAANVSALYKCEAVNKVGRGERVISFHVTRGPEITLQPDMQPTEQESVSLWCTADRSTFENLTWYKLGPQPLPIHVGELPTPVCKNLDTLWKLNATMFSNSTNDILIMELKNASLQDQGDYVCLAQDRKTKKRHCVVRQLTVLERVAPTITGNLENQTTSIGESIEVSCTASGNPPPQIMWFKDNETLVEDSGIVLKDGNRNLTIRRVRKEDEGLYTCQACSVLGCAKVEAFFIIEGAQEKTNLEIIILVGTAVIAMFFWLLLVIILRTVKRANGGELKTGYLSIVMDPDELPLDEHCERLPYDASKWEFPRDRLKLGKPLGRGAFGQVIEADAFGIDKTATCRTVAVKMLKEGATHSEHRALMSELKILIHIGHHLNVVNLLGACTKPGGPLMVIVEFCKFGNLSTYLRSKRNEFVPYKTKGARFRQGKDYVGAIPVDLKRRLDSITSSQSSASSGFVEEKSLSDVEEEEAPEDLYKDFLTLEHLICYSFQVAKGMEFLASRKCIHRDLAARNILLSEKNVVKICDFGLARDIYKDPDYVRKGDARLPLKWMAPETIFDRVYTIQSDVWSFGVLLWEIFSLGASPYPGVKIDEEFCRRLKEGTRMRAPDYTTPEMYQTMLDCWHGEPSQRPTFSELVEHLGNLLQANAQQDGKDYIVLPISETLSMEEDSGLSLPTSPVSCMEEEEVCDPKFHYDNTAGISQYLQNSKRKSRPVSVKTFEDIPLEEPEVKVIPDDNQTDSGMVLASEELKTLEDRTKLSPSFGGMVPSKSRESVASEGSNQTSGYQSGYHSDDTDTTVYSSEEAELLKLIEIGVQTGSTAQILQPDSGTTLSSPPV
T8 sequence (P10721 with tags, fused parts or gaps): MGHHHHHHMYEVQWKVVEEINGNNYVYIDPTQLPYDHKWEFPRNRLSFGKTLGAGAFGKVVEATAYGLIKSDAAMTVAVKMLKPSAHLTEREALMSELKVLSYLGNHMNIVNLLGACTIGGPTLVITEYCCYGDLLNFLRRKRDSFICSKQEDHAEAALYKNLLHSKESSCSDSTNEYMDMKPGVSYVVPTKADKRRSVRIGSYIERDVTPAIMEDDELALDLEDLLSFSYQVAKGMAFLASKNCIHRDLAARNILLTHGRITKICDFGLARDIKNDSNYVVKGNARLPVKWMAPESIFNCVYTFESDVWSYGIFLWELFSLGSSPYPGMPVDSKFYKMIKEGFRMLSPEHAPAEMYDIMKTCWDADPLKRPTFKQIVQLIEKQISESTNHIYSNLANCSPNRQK
T5 sequence (Q02750 whole entry): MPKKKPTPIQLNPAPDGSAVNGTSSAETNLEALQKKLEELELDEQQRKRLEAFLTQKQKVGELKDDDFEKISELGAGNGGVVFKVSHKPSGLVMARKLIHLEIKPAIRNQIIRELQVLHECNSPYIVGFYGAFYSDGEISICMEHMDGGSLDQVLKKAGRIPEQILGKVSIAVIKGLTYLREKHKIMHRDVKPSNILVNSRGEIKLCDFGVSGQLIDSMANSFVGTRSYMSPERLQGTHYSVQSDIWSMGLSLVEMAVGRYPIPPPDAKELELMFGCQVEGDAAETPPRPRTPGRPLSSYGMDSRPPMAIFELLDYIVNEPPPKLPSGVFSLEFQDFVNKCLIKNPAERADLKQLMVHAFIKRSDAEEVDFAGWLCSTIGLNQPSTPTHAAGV
T9 sequence (Q16539 with tags, fused parts or gaps): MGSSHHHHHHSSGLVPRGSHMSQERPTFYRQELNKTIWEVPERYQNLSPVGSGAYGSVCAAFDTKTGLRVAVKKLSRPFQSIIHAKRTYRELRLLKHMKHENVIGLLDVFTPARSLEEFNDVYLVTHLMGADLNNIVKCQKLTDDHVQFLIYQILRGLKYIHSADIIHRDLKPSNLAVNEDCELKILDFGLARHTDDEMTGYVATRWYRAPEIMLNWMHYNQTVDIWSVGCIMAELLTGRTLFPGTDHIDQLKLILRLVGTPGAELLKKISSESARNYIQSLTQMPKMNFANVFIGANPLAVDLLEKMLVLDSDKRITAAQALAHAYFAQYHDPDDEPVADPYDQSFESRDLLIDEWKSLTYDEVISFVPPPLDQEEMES
T12 sequence (P35916 25-1363): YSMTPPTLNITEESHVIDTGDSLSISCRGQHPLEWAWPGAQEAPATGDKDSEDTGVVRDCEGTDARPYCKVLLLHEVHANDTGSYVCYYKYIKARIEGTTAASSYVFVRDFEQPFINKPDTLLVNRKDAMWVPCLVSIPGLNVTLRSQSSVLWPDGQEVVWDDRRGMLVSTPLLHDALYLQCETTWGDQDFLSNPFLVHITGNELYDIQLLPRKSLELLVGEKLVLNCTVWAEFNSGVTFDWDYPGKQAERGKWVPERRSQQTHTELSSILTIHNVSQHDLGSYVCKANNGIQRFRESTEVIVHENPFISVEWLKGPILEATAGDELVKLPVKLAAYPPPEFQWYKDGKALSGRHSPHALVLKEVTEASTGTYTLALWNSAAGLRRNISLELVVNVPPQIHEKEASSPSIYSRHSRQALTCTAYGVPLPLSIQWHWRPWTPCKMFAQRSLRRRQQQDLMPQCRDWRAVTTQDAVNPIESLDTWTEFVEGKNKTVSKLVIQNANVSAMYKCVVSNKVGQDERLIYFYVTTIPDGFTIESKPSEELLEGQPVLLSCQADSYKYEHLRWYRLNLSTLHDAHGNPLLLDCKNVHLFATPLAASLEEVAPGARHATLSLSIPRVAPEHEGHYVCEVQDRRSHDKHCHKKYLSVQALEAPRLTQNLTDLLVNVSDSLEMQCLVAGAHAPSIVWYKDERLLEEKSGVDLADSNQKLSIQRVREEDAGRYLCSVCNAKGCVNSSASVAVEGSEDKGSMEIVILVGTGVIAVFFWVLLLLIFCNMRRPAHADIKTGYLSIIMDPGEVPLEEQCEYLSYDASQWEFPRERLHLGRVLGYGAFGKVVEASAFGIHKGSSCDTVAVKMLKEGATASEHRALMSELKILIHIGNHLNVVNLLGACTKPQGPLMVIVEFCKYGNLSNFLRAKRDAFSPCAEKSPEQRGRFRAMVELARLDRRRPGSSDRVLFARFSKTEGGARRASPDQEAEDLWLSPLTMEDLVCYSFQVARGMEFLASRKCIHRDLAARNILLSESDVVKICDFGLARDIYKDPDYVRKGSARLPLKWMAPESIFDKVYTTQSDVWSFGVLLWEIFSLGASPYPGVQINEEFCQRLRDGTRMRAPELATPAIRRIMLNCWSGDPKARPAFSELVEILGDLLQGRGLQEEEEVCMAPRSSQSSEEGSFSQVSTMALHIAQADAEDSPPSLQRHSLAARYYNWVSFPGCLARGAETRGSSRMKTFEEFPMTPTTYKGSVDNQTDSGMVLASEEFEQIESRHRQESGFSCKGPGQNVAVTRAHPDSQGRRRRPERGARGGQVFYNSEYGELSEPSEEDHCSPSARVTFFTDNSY
T7 sequence (P11362 458-765 C488A/C584S): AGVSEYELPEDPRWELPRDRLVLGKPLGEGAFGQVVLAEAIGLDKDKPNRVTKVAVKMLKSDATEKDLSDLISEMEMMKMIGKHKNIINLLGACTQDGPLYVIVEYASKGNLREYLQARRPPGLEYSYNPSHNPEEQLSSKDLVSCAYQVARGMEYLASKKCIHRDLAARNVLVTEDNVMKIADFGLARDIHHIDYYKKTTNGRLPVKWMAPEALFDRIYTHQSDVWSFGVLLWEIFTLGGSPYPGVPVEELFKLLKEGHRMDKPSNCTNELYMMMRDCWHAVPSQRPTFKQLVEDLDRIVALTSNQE
T13 sequence (P08581 with tags, fused parts or gaps): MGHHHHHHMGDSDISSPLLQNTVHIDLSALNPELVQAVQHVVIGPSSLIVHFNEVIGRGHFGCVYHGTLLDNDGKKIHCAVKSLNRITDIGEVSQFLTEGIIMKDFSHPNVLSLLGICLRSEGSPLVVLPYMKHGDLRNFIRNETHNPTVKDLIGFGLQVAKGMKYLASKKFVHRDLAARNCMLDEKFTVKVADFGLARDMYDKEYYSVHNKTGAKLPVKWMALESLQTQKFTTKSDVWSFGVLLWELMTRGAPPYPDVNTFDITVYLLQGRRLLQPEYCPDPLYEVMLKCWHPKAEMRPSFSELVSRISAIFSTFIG

SMILES | IC50 (Irak4) | IC50 (Kdr) | IC50 (Stk6) | IC50 (MAP2K1) | IC50 (Kit) | IC50 (p38) | IC50 (Flt1) | further results
O=C(c1ccccc1F)c1c[nH]c2ncc(-c3cccnc3)cc12 [Compound P-0708] |  | ≤ 10 µM |  |  | ≤ 10 µM | ≤ 10 µM | ≤ 10 µM | IC50 (Ret): ≤ 10 µM; IC50 (FGFR1): ≤ 10 µM; IC50 (Abl): ≤ 10 µM; IC50 (Flt4): ≤ 10 µM
Brc1ccc(/C=C\c2c[nH]c3ncccc23)cc1 [Compound P-0511] |  |  |  |  | ≤ 10 µM | ≤ 10 µM |  | 
Nc1cccc(-c2c[nH]c3ncccc23)c1 [Compound P-0091] | ≤ 10 µM | ≤ 10 µM | ≤ 10 µM |  |  |  | ≤ 10 µM | 
CC(=O)Nc1cccc(-c2c[nH]c3ncccc23)c1 [Compound P-0076] | ≤ 10 µM | ≤ 10 µM | ≤ 10 µM | ≤ 10 µM |  |  |  | IC50 (Met): ≤ 10 µM

Now from value to molecule, other results behind:

IC50 (Irak4) | IC50 (Kdr) | IC50 (Stk6) | IC50 (MAP2K1) | IC50 (Kit) | IC50 (p38) | IC50 (Flt1) | SMILES | further results
≤ 10 µM | ≤ 10 µM |  |  |  |  |  | c1cnc2[nH]cc(-c3ccncc3)c2c1 [Compound P-0130] | IC50 (MAP4K4): ≤ 10 µM
≤ 10 µM | ≤ 10 µM | ≤ 10 µM | ≤ 10 µM |  |  |  | OCc1cccc(-c2c[nH]c3ncccc23)c1 [Compound P-0087] | IC50 (IKK beta): ≤ 10 µM
